Values belong to the molecule of their own block, whether it stands above or below them. Activity calls are given as the source filed them. No cut-off for these calls is given here.
Legend:
Tyrosinase [1] = molecular target: T1, Tyrosinase (Agaricus bisporus, UniProt O42713); assay: Inhibition of monophenolase activity of mushroom tyrosinase using L-tyrosine as substrate incubated for 10 mins by UV-Visible spectrophotometric analysis
T1 sequence (O42713 whole entry): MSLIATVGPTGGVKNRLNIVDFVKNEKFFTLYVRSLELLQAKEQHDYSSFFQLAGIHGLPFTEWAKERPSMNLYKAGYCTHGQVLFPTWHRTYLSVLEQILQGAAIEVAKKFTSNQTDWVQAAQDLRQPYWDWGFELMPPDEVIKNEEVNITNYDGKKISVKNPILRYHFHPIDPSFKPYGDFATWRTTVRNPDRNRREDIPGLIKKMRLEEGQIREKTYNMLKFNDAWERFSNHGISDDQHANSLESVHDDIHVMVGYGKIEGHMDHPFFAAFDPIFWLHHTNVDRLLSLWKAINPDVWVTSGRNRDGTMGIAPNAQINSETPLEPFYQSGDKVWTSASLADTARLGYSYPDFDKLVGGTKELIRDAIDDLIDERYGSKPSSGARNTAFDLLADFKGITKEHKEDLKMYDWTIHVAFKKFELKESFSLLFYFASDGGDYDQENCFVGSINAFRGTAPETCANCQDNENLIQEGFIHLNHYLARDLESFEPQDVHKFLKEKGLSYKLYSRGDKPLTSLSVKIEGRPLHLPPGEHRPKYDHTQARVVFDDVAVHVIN

[2] = molecular target: T2, Tyrosinase (Agaricus bisporus) (UniProt O42713); assay: Competitive-uncompetitive-mixed type inhibition of diphenolase activity of mushroom tyrosinase using L-DOPA as substrate incubated for 10 mins by Lineweaver-Burk plot method
T2 sequence (whole entry): T1 sequence (O42713 whole entry)

Tyrosinase [3] = molecular target: T1, Tyrosinase; assay: Inhibition of diphenolase activity of mushroom tyrosinase using L-DOPA as substrate incubated for 10 mins by UV-Visible spectrophotometric analysis
Tyrosinase [4] = molecular target: T1, Tyrosinase; assay: Inhibition of diphenolase activity of mushroom tyrosinase using L-DOPA as substrate assessed as enzyme-inhibitor complex incubated for 10 mins by Lineweaver-Burk plot method
[5] = molecular target: T2, Tyrosinase (Agaricus bisporus); assay: Reversible inhibition of diphenolase activity of mushroom tyrosinase using L-DOPA as substrate at 4.17 to 33.33 uM incubated for 10 mins by UV-Visible spectrophotometric analysis
Tyrosinase [6] = molecular target: T1, Tyrosinase; assay: Inhibition of diphenolase activity of mushroom tyrosinase using L-DOPA as substrate assessed as enzyme-substrate-inhibitor complex incubated for 10 mins by Lineweaver-Burk plot method
[7] = Copper reducing activity in 0.4 mM cupric sulfate solution assessed as cuprous ion formation up to 0.15 mM after 10 mins by bathocuproinedisulfonic acid dye based spectrophotometric analysis; format: physicochemical
[8] = Copper chelating activity in pH 5 copper sulfate solution at 2.857 mM after 10 mins by tetramethylmurexide dye based assay relative to control; format: physicochemical; conditions: pH 5, 10 min, 2857 µM
[9] = Copper chelating activity in pH 7.4 copper sulfate solution at 2.857 mM after 10 mins by tetramethylmurexide dye based assay relative to control; format: physicochemical; conditions: pH 7.4, 10 min, 2857 µM

IC50 (Tyrosinase [1]): 12.5 µM
Structure (SMILES): CC(C)[C@H](NC(=O)OCc1ccccc1)C(=O)OCc1cc(=O)c(O)c[nH]1

IC50 (Tyrosinase [1]): 14.3 µM
Structure (SMILES): CC(C)[C@H](NC(=O)[C@@H](N)Cc1ccccc1)C(=O)NCc1cc(=O)c(O)c[nH]1

IC50 (Tyrosinase [1]): 15.6 µM
Structure (SMILES): CC[C@H](C)[C@H](NC(=O)OCc1ccccc1)C(=O)OCc1cc(=O)c(O)c[nH]1

IC50 (Tyrosinase [1]): 6.93 µM
Structure (SMILES): CC(C)C[C@H](NC(=O)[C@@H](N)Cc1ccccc1)C(=O)NCc1cc(=O)c(O)c[nH]1

IC50 (Tyrosinase [1]): 11.8 µM
Structure (SMILES): C[C@H](NC(=O)OCc1ccccc1)C(=O)OCc1cc(=O)c(O)c[nH]1

IC50 (Tyrosinase [1]): 28.7 µM
Structure (SMILES): CC(C)C[C@H](NC(=O)OCc1ccccc1)C(=O)OCc1cc(=O)c(O)c[nH]1

inhibition [2]: Active | IC50 (Tyrosinase [3]): 26.2 µM | IC50 (Tyrosinase [1]): 2.79 µM | Ki (Tyrosinase [4]): 34.4 µM | inhibition [5]: Active | Ki (Tyrosinase [6]): 79 µM
Structure (SMILES): N[C@@H](Cc1ccccc1)C(=O)N[C@@H](Cc1ccccc1)C(=O)NCc1cc(=O)c(O)c[nH]1

inhibition [2]: Active | IC50 (Tyrosinase [3]): 8.97 µM | IC50 (Tyrosinase [1]): 1.95 µM | Activity [7]: Active | Ki (Tyrosinase [4]): 17.2 µM | inhibition [5]: Active | Activity [8]: 97.52% | Activity [9]: 88.92% | Ki (Tyrosinase [6]): 22.1 µM
Structure (SMILES): O=C(N[C@@H](Cc1ccccc1)C(=O)OCc1cc(=O)c(O)c[nH]1)OCc1ccccc1

— ChEMBL document CHEMBL3808326, “Design and synthesis of novel hydroxypyridinone derivatives as potential tyrosinase inhibitors” (Bioorg Med Chem Lett, 2016)
